Paper doi:10.1101/2025.03.20.644389, “In vivo validation of the palmitoylation cycle as a therapeutic target in NRAS-mutant cancer” (bioRxiv, 2025)

Target: T1, ABHD17B (Homo sapiens, UniProt Q5VST6)
T1 construct: hABHD17B recombinantly expressed in HEK293T cells (membrane proteome)
T1 sequence (Q5VST6 1-288): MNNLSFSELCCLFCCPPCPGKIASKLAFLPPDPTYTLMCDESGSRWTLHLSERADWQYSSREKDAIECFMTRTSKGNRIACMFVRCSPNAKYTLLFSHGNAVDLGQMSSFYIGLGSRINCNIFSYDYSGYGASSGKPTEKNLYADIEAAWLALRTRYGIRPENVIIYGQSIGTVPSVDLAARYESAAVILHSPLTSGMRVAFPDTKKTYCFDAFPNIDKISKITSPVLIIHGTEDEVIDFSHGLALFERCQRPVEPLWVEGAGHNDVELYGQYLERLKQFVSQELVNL
Experiment: competitive gel-based ABPP with FP-Rh in transfected HEK293T membrane proteome
Type: biochemical

An IC50 of 76 nM was found for ABD778 in this work.
